Results on 18 molecules are retold here after US20190119284A1, “ErbB Inhibitors and Uses Thereof” (The Regents of the University of California, priority 2016, published 2019).

Series [1] can be described thus: Mouse Liver Microsome stability assay. The format is in vitro ADME. The conditions noted are these: mouse liver microsomes.
Series [2] concerns the target 2YF/3wt + NRG Ba/F3 cells (HER2YF/HER3wt) (Homo sapiens, UniProt P04626, Y1005F/Y1023F/Y1112F/Y1127F/Y1139F/Y1196F/Y1221F/Y1222F/Y1248F, cells depend on it). Briefly: Ba/F3 proliferation assay, 2YF/3wt + NRG. The format is cell-based. The conditions noted are these: Tables 7 and 8; read-out: Ba/F3 line IC50, HER2YF/HER3 + NRG. From the text: Ba/F3 cells are normally dependent on IL-3 signaling for their proliferation and survival, but can be made dependent on introduced oncogenic signals. We sequentially selected transduced Ba/F3 cells for populations stably expressing HER3 and then HER2. To ensure that all of the proliferative signal could be attributed to HER2/HER3 heterodimers, rather than HER2 homodimers, the 9 C-terminal tyrosines in HER2 were mutated to phenylalanine (HER2YF). We then withdrew IL-3 and supplemented the media with NRG to select for NRG dependent HER2YF/HER3wt cells (2YF/3wt).
For the 2YF/3wt cells, the parental cells were first transduced with HER3 according to the protocol above and were then spun down at 500×g for 5 min and re-suspended in media supplemented with 10 ng/mL IL-3 and 3 μg/mL puromycin (Invitrogen). Cells were maintained in these conditions for seven days, passaging as required. After seven days the cells were spun down, washed with fresh media, and then used for a subsequent round of transduction according to the protocol above with HER2YF virus. […] The cells were maintained in these conditions for seven days, passaging as required. After seven days the cells were spun down, washed with fresh media, and then suspended in media supplemented with 10 ng/mL of NRG. Cells were maintained in these conditions for seven days to select for a NRG dependent population of 2YF/3wt Ba/F3 cells that were then maintained as described above. The same protocol was used for the 2YF-L755S/3wt, 2YF-YVMA/3wt, and 2YF-VC/3wt cell lines using the indicated constructs.
Proliferation Assays. […] The following day media was changed to fresh media that contained either DMSO or the indicated concentration of drug plus NRG (50 ng/mL final concentration) as indicated. […] For all normalized assays, proliferation was normalized to the DMSO control condition. All graphs were plotted in GraphPad Prism 6 and fit with a non-linear regression of the log(inhibitor) vs response with a variable slope where shown. All graphs are averages (+/−standard deviation) of biological triplicates each performed in technical triplicate unless otherwise noted. If only one biological replicate was performed standard deviations were derived from the technical replicates.

A further series deals with T1, Axl+ Ba/F3 cells (Homo sapiens, UniProt P30530).
T1 sequence (P30530 1-894): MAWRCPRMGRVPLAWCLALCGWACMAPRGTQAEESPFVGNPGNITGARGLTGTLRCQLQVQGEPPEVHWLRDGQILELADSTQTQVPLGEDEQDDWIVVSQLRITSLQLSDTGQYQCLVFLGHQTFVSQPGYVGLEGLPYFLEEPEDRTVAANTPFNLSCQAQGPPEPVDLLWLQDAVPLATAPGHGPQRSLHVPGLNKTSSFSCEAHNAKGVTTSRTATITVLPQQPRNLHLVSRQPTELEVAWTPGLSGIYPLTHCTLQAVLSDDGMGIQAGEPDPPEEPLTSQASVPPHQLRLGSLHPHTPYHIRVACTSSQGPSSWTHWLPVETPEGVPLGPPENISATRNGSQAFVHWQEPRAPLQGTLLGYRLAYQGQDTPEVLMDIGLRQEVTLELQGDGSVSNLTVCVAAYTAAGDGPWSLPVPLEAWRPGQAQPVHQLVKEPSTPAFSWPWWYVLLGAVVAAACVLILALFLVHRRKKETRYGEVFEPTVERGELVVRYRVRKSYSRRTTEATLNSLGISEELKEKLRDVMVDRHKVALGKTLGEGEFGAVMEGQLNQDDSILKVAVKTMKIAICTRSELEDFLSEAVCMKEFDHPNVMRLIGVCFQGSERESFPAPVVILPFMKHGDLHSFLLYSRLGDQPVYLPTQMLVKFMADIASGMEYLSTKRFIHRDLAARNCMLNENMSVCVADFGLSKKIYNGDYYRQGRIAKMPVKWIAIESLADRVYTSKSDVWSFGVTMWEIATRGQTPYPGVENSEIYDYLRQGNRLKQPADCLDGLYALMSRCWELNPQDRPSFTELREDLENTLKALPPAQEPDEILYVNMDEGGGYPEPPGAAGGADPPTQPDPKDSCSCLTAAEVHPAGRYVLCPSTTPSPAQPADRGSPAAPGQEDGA
As to the kind of experiment: Ba/F3 proliferation assay, Axl+. It counts as cell-based. The conditions noted are these: Tables 7 and 8; read-out: Ba/F3 line IC50, Axl+. The protocol:
(§1) To validate the screen and test the effectiveness of counter-screening with either the same 2YF/3wt Ba/F3 cell line or the parental Ba/F3's in the presence of IL-3 to remove cytotoxic primary hits, we first tested a panel of kinase inhibitors with established mechanisms of action.
For Axl+ cells, the transduced cells were spun down at 500×g for 5 min and resuspended in media supplemented with 10 ng/mL IL-3 and 3 μg/mL puromycin (Invitrogen). Cells were maintained in these conditions for 7 days, passaging as required. After 7 days the cells were spun down, washed with fresh media, and then suspended in IL-3 free media. The cells were maintained in these conditions for 2 weeks to select for an IL-3 independent population of Axl+ driven cells.
(§2) Proliferation Assays. For adherent cell lines, cells were plated onto opaque white 96 well plates (Greiner cat #655083) and allowed to adhere overnight. The following day media was changed to fresh media that contained either DMSO or the indicated concentration of drug plus NRG (50 ng/mL final concentration) as indicated. Plates were incubated at 37° C. for 72 h and proliferation was read out using Cell Titer Glo (Promega) according to the manufacturer's protocol. For Ba/F3 cell proliferation, cells, drug dilution, and any necessary growth factors (10 ng/mL IL-3 or 6.25 ng/mL NRG) were combined in a well of a 96 well plate. Plates were incubated at 37° C. for 48 h and proliferation was read out using Cell Titer Glo according to the manufacturer's protocol. For all normalized assays, proliferation was normalized to the DMSO control condition. All graphs were plotted in GraphPad Prism 6 and fit with a non-linear regression of the log(inhibitor) vs response with a variable slope where shown. All graphs are averages (+/−standard deviation) of biological triplicates each performed in technical triplicate unless otherwise noted. If only one biological replicate was performed standard deviations were derived from the technical replicates.

Series [3] relates to parental Ba/F3 cells + IL-3. As to the kind of experiment: Ba/F3 proliferation assay, Parental + IL-3. It counts as cell-based. The conditions noted are these: Mus musculus, BaF3; Tables 7 and 8; read-out: Ba/F3 line IC50, Parental + IL-3. The protocol:
as §1, §2

The test system of a further series is HER2+/2VE Ba/F3 line. Briefly: Ba/F3 proliferation assay, HER2+/2VE. The format is cell-based. The conditions noted are these: Mus musculus, BaF3; Tables 7 and 8. As to the method: as §2

Each structure is given as a SMILES string. pIC50: −log10 of the molar value.

Chain of 2YF/3wt + NRG Ba/F3 cells (HER2YF/HER3wt) (P04626 whole entry Y1005F/Y1023F/Y1112F/Y1127F/Y1139F/Y1196F/Y1221F/Y1222F/Y1248F): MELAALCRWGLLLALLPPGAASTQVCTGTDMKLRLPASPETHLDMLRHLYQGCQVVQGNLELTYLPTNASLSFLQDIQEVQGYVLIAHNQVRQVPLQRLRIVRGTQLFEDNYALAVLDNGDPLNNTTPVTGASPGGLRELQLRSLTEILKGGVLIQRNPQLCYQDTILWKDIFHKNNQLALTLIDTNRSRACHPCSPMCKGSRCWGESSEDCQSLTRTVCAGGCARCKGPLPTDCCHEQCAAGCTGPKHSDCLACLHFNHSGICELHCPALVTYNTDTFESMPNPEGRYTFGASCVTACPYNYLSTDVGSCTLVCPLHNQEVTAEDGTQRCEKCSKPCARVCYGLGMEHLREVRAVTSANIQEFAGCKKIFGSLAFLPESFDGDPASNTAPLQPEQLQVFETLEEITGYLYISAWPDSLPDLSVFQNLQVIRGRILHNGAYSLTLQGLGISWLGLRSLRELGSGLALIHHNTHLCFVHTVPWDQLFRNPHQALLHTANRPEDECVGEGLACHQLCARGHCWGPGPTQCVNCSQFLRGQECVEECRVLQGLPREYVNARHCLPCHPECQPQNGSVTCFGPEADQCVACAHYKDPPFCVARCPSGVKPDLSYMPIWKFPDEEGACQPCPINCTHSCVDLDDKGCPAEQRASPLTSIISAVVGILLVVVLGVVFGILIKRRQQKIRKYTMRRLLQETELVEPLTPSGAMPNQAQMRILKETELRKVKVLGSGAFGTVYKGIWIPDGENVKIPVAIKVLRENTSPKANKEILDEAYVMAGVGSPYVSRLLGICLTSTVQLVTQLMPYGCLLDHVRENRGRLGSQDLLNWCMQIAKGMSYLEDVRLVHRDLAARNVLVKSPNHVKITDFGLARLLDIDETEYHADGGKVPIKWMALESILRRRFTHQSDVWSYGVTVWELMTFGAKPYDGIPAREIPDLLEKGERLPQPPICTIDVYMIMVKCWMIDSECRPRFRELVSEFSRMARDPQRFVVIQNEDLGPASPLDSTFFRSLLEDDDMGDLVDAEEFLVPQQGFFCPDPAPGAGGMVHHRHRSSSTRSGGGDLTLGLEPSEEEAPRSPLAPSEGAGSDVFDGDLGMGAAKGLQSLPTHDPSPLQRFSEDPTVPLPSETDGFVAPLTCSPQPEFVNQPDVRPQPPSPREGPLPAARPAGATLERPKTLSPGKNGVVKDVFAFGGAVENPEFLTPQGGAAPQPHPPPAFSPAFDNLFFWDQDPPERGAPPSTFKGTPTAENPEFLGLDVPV

Take `COc1ccc(-c2cnccn2)cc1Nc1ncnc2[nH]nc(-c3cc[nH]n3)c12` [compound 8184]: the “WuXi Microsomal stability (Mouse Extraction Ratio)” value in series [1] is 0.9.
Still for that read-out and setting: as for `COc1cc(C)c(-c2ccccc2)cc1Nc1ncnc2[nH]nc(-c3cc[nH]n3)c12` [compound 8134], the figure is 0.7; as for `COc1ccc(-c2ccccc2)cc1Nc1ncnc2[nH]nc(-c3n[nH]cc3C)c12` [compound 8186], 0.7; as for `FC(F)Oc1ccc(-c2ccccc2)cc1Nc1ncnc2[nH]nc(-c3cc[nH]n3)c12` [compound 8179], 0.6.
`COc1ccc(-c2ccccc2F)cc1Nc1ncnc2[nH]nc(-c3cc[nH]n3)c12` [8168A]: the “WuXi Microsomal stability (Mouse Extraction Ratio)” value in series [1] is given as 0.8.
Consider `COc1ncc(-c2ccccc2)cc1Nc1ncnc2[nH]nc(-c3cc[nH]n3)c12` [compound 8177], for which, in series [1], the “WuXi Microsomal stability (Mouse Extraction Ratio)” value was determined as 0.8.
Turning to `CN(C)c1ccc(-c2ccccc2)cc1Nc1ncnc2[nH]nc(-c3cc[nH]n3)c12` [compound 8164], the “WuXi Microsomal stability (Mouse Extraction Ratio)” value in series [1] was 0.9.
Take `COc1ccc(-c2ccccc2)cc1Nc1ncnc2[nH]nc(-c3ccccc3F)c12` [Cmpd 189A]: the GI50 in series [2] was 0.361 µM; at Axl+ Ba/F3 cells, 0.362 µM. The values for the pIC50 (in series [3]; with HER2+/2VE Ba/F3 line) were 5.95 and 6.21, respectively.
As to `COc1ccccc1Nc1ncnc2[nH]nc(-c3cccc(C(C)=O)c3)c12` [Cmpd 187B], the GI50 (in series [2]; at Axl+ Ba/F3 cells) was greater than 10 µM in each case. Moreover, the pIC50 (in series [3]; in the series on HER2+/2VE Ba/F3 line) was less than 5.00 in each case.
Regarding `COc1ccccc1Nc1ncnc2[nH]nc(-c3ccccc3)c12` [Cmpd 187A], the GI50 (in series [2]; at Axl+ Ba/F3 cells) was greater than 10 µM in each case. Also, the pIC50 (in series [3]; in the series with HER2+/2VE Ba/F3 line) was less than 5.00 in each case.
With `COc1ccc(-c2ccccc2)cc1Nc1ncnc2[nH]ncc12` [Cmpd 5-004], the GI50 in series [2] stood at 2.59 µM; at Axl+ Ba/F3 cells, 6.94 µM. The pIC50 in series [3] is less than 5.48; in the series with HER2+/2VE Ba/F3 line it was 5.50.
The like results for `COc1ccc(-c2ccc(C)cc2)cc1Nc1ncnc2[nH]nc(-c3ccsc3)c12` [Cmpd 39C] were, in that order, greater than 10 µM, greater than 10 µM, less than 5.00 and less than 5.00.
Take `CNC(=O)c1cc(-c2n[nH]c3ncnc(Nc4cc(-c5ccccc5)ccc4OC)c23)cs1` [Cmpd 45F]: the GI50 in series [2] worked out at 0.739 µM; on Axl+ Ba/F3 cells, 0.535 µM. The pIC50 in series [3] was less than 5.00; in the series with HER2+/2VE Ba/F3 line it was 5.99.
In the case of `COc1ccc(N2CCN(C)CC2)cc1Nc1ncnc2[nH]nc(-c3ccsc3)c12` [Cmpd 41B], the GI50 in series [2] is greater than 3.33 µM; on Axl+ Ba/F3 cells, greater than 1 µM. In addition, the pIC50 is less than 5.48 in series [3] and less than 6.00 in the series on HER2+/2VE Ba/F3 line.
Regarding `CC(=O)c1cccc(-c2n[nH]c3ncnc(Nc4ccc(-c5ccccc5)cc4)c23)c1` [Cmpd 188B], the GI50 (in series [2]; on Axl+ Ba/F3 cells) was greater than 10 µM throughout. Besides, the pIC50 (in series [3]; in the series on HER2+/2VE Ba/F3 line) was less than 5.00 throughout.
As to `COc1ccc(-c2ncccn2)cc1Nc1ncnc2[nH]nc(-c3cc[nH]n3)c12` [compound 8185], in series [1], the “WuXi Microsomal stability (Mouse Extraction Ratio)” value is recorded as 0.8.
`c1ccc(-c2cccc(Nc3ncnc4[nH]nc(-c5ccccc5)c34)c2)cc1` [Cmpd 186A]: the GI50 (in series [2]; on Axl+ Ba/F3 cells) was greater than 10 µM throughout. The pIC50 (in series [3]; in the series on HER2+/2VE Ba/F3 line) was less than 5.00 in each case.
`COc1ccc(-c2ccccc2)cc1Nc1ncnc2[nH]nc(-c3cn[nH]c3)c12` [Cmpd 45E]: the GI50 in series [2] was 0.053 µM; on Axl+ Ba/F3 cells it was greater than 10 µM. For the same molecule, the pIC50 was less than 5.00 in series [3] and 5.87 in the series with HER2+/2VE Ba/F3 line.
